Measured values taken from ChEMBL document CHEMBL1201862, “PubChem BioAssay data set” (2004).
Calls of active or inactive are those of the source.

Tests used:
[1] = Luminescence Cell-Based Dose Response HTS to Identify Activators of Luciferase Translation or Activity in H4 […] Cells. [Related pubchem assays: 1829 (Project Summary), 1814 (Primary HTS)]; assay type: functional
H4 = experiment: Luminescence Cell-Based Dose Response HTS to Identify Activators of 5'UTR Stem-Loop Driven Prion Protein mRNA Translation in H4 Neuroglioblastoma Cells. [Related pubchem assays: 1829 (Project Summary), 1814 (Primary HTS)]; assay type: functional; conditions: Homo sapiens
[2] = molecular target: T1, Corticotropin-releasing factor receptor 2/Corticotropin-releasing factor-binding protein (Homo sapiens, UniProt P24387+Q13324); experiment: activators of CRF receptor 2 with binding protein – uHTS hits, confirmation (AID 602473); assay type: functional; conditions: read-out: EC50_Mean
T1 sequence (Q13324 whole entry): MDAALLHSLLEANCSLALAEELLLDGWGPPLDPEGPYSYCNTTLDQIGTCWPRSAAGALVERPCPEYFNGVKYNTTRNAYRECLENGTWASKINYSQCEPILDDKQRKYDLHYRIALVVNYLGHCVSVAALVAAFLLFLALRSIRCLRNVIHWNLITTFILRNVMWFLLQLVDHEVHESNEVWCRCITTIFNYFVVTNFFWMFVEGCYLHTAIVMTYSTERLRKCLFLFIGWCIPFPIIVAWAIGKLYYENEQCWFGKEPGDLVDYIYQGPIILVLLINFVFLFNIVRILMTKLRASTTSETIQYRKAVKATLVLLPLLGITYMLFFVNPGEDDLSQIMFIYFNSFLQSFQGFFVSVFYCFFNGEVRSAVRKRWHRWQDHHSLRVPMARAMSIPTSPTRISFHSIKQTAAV
T1 sequence (P24387 whole entry): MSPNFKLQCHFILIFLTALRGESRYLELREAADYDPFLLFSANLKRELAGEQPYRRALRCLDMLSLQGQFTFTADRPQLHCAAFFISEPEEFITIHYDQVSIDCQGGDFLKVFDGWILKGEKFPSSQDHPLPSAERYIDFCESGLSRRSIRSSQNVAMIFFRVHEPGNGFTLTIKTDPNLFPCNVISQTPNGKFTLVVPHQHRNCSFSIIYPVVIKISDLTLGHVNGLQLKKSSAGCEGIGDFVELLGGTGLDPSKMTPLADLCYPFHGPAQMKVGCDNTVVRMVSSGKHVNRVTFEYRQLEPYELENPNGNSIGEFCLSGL

[3] = molecular target: T1, Corticotropin-releasing factor receptor 2/Corticotropin-releasing factor-binding protein; experiment: Dose Response confirmation of uHTS hits for small molecule antagonists of the CRF-binding protein and CRF-R2 receptor complex.; assay type: functional; conditions: read-out: IC50_Mean
[4] = Luminescence Cell-Based Dose Confirmation HTS to Identify Activators of 5'UTR Stem-Loop Driven Alpha-Synuclein mRNA Translation in H4 Neuroglioblastoma Cells. [Related pubchem assays: 1829 (Project Summary), 1814 (Primary HTS)]; assay type: functional
[5] = NIH-3T3 fibroblast cytotoxicity, dose response, cytotoxicity control, cell-based, fluorescence, Alamar Blue, secondary assay (AID 2327); assay type: functional;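 further: NIH-3T3 mouse fibroblasts cultured with fluconazole at 8 µg/mL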
[6] = molecular target: T2, Calpain-2 catalytic subunit (Sus scrofa, UniProt P43367); experiment: pig calpain II inhibitor potency, dose response, biochemical, fluorogenic peptide substrate (AID 1420); assay type: functional
T2 sequence (P43367 whole entry): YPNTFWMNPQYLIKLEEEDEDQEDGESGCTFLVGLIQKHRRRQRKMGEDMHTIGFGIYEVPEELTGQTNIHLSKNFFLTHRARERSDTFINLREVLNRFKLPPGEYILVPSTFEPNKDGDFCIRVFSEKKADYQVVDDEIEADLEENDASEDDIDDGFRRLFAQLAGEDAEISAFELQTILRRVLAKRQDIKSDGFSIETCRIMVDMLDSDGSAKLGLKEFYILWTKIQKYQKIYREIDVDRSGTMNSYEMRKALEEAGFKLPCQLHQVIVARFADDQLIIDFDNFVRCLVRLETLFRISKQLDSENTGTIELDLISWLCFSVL

Paired box protein Pax-8 = Paired box protein Pax-8 (Homo sapiens, UniProt Q06710); experiment: inhibitors of PAX8-driven TPO luciferase reporter, dose response, RMG-I cells, cherry-pick (AID 687027); assay type: functional, cell-based;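 further: luciferase reporter driven by Pax8 target thyroperoxidase promoter measured by SteadyGlo luminescence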
Paired box protein Pax-8, sequence (Q06710 whole entry): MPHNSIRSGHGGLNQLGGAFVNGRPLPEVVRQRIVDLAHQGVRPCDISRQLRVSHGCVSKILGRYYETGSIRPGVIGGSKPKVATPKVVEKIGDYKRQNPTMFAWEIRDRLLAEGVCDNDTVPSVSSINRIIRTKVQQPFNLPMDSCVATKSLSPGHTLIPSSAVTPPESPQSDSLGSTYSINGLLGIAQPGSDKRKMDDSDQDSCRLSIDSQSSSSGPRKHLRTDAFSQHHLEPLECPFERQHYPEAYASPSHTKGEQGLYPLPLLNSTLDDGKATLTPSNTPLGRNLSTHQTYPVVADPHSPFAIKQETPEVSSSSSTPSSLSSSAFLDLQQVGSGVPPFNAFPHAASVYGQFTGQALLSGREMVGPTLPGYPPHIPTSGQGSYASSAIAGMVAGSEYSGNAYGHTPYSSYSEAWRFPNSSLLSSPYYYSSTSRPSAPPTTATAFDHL

Leucine aminopeptidase = molecular target: T3, Leucine aminopeptidase (Plasmodium falciparum 3D7, UniProt Q8IL11); experiment: P. falciparum M17LAP inhibitors, primary screen, biochemical, fluorogenic H-Leu-NHMec substrate, 1536-well (AID 1619); assay type: functional
T3 sequence (Q8IL11 whole entry): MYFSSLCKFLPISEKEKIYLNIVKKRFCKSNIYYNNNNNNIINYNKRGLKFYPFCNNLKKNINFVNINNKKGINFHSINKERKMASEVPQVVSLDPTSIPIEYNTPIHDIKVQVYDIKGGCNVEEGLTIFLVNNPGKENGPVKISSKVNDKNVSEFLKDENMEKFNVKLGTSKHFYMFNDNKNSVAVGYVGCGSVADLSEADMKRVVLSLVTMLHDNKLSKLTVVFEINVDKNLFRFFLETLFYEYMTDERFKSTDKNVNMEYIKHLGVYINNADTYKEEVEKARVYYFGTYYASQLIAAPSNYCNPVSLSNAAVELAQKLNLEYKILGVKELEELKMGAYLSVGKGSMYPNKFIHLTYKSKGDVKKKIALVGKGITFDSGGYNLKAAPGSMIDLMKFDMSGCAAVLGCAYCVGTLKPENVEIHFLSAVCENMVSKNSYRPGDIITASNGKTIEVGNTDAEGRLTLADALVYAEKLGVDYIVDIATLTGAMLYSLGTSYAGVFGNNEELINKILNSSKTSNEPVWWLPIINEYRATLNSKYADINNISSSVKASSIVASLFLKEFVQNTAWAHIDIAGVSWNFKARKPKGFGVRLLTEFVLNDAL

[7] = C. albicans growth with fluconazole, confirmation, fluorescence, retest (AID 2467); assay type: functional, cell-based
[8] = molecular target: T4, Rac GTPase-activating protein 1 (Homo sapiens, UniProt Q9H0H5); experiment: MgcRacGAP GTPase-activating activity inhibitors, confirmation, biochemical, ADP Hunter fluorescence, primary and confirmatory (AID 624330); assay type: functional
T4 sequence (Q9H0H5 whole entry): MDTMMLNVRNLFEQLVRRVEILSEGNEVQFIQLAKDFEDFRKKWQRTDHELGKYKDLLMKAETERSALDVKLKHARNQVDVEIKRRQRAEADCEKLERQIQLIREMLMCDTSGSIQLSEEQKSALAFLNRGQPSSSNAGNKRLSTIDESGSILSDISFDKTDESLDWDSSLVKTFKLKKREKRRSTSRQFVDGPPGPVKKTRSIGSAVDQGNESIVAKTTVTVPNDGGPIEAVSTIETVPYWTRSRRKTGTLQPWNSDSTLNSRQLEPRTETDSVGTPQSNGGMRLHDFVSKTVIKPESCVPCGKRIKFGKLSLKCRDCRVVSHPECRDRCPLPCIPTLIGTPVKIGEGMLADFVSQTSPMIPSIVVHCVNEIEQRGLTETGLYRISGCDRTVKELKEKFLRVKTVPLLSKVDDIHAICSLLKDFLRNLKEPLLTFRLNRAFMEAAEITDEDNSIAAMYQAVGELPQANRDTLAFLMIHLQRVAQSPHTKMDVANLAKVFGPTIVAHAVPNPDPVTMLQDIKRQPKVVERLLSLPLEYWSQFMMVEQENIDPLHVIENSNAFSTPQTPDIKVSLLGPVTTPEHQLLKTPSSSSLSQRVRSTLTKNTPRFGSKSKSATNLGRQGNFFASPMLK

Compound: Cc1ccc(NC(=O)CSC2=C(C#N)C(c3ccco3)CC(=O)N2)cc1 (configuration not stated)
- EC50 [1]: 12.4 µM (active)
- EC50 (H4): 16.1 µM (active)
- EC50 [2]: > 53 µM (inactive)
- IC50 [3]: > 47.1 µM (inactive)
- EC50 [4]: 0.908 µM (active)

Compound: CC(=O)Nc1ccc(NC(=O)CCCN2C(=O)c3ccccc3C2=O)cc1
- EC50 [5]: > 150 µM (inactive)

Compound: Cc1ccc(-c2nc(N)sc2-c2ccc(C)cc2)cc1
- IC50 [6]: 3.19 µM (not active)

Compound: OC(CNCc1ccc(Cl)cc1)(c1ccccc1)c1ccc(F)cc1 (configuration not stated)
- IC50 [6]: 12.1 µM (not active)

Compound: CCOC(=O)c1cnn(CCOC(=O)c2cccc(F)c2)c1NC(=O)c1cccc(F)c1
- AC50 (Paired box protein Pax-8): 20 µM (active)

Compound: Cc1ccc(CNC(=O)CCCCCNc2nc(S)nc3ccccc23)cc1
- IC50 [6]: 24.8 µM (not active)

Compound: CC1CCCCN1C(=O)CSc1nc(O)cc(-c2ccccc2)n1 (configuration not stated)
- IC50 (Leucine aminopeptidase): 63.5 µM (active)

Compound: CCCOC(=O)Nc1cc(OC)ccc1[N+](=O)[O-]
- IC50 [6]: 8.71 µM (not active)

Compound: CCOc1ccc(C2C(C(=O)Nc3ccccc3)=C(C)N=c3s/c(=C/c4cccc(OCC(=O)O)c4)c(=O)n32)cc1 (configuration not stated)
- IC50 (Leucine aminopeptidase): 5.95 µM (active)

Compound: O=[N+]([O-])c1ccc(/C(=N\c2cccc3ccccc23)N2CCOCC2)cc1
- EC50 [5]: > 150 µM (inactive)
- EC50 [7]: > 38 µM (not active)

Compound: O=C1c2ccccc2C(=O)N1/N=C/c1ccc(O)c(O)c1
- IC50 (Leucine aminopeptidase): 30.4 µM (active)
- IC50 [8]: 44.5 µM (active)
